Format in all cases: biochemical
One test addresses T1, TrkA (Homo sapiens, UniProt P04629).
T1 construct: purchased Invitrogen
Nature of the test: HTRF KinEASE kinase assay, recombinant Human TRK enzyme, TrkA (NTRK1). Conditions: NTRK1 4 nM, read-out: TrkA Enz. As for the experimental part: (§1) A suitable assay for determining the Trk inhibition activity of a compound is detailed herein below.
(§2) To determine the IC50 of small molecule compounds for the Human TRK receptors, HTRF® KinEASE™ kinase kits from Cisbio were used. Assays were carried out in low volume, black 384-well plates.
(§3) Recombinant Human TRK enzymes (Invitrogen) were incubated in the presence or absence of the compound (11-point dose response with FAC as 10 μM) for 30 minutes at 23° C. Kinase reaction was started by addition of ATP to a mixture containing the enzyme (NTRK1-4 nM, NTRK2-1 nM, NTRK3-10 nM) and substrate (1 μM). Kinase reaction was allowed to carry on for 10 to 45 minutes at 23° C. after which it was stopped by addition of the detection mix (supplied by vendor) containing EDTA, TK-Ab-labelled with Eu^3+-cryptate (1:200 dilutions) and Streptavidin-XL665 (250 nM). Assay plates were incubated in this detection mix for 60 minutes at 23° C. The resulting TR-FRET signal, calculated as the fluorescence ratio at 665/620 nm, was read on an Envision and was proportional to the level of phosphorylation of the peptide in the presence or absence of the compound. The uniformity of the plates were assured with Z′ value [1−{3*(SDHPE+SDZPE)/(ZPE−HPE)}]. The percent (%) effect i.e. Inhibition of compound was calculated in comparison to the signal in the positive (HPE) and negative control (ZPE) wells within each assay plate. The endpoint value % Inhibition for the Standard compound was evaluated in each experiment as a quality control measure. IC50 was determined by plotting compound inhibition at respective dose in Graphpad prism5 using four parameter logistic curve fit.
Background: Time-resolved FRET reads energy transfer from a long-lived donor to a nearby acceptor.

The next test concerns the target T2, TrkC (Homo sapiens, UniProt Q16288).
T2 construct: purchased Invitrogen
Nature of the test: HTRF KinEASE kinase assay, recombinant Human TRK enzyme, TrkC (NTRK3). Conditions: NTRK3 10 nM, read-out: TrkC Enz. As for the experimental part:
as §1, §2, §3

Another test deals with T3, TrkB (Homo sapiens, UniProt Q16620).
T3 construct: purchased Invitrogen
Description: HTRF KinEASE kinase assay, recombinant Human TRK enzyme, TrkB (NTRK2). The note with it: NTRK2 1 nM, read-out: TrkB Enz. As for the experimental part:
as §1, §2, §3

T1 sequence (P04629 33-796): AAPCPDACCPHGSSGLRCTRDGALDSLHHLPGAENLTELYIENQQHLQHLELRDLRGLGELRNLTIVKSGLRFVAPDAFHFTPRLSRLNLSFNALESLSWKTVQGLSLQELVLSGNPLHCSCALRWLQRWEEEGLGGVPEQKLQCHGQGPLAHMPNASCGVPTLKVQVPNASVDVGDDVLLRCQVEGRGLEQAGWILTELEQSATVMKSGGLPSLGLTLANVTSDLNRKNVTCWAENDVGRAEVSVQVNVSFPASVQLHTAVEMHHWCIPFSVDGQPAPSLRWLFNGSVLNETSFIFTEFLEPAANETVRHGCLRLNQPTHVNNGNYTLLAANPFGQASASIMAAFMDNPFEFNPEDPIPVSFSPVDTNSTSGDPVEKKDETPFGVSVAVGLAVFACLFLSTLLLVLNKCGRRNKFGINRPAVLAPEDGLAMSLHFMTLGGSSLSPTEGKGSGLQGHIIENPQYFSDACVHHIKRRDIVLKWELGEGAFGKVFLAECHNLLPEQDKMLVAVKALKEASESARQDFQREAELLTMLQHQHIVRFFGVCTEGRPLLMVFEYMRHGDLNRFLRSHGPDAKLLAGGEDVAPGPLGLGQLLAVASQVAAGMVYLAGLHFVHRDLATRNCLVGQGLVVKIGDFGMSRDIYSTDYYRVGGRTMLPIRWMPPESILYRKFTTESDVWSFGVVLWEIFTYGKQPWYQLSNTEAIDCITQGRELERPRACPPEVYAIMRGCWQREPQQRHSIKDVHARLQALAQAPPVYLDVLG
T2 sequence (Q16288 32-839): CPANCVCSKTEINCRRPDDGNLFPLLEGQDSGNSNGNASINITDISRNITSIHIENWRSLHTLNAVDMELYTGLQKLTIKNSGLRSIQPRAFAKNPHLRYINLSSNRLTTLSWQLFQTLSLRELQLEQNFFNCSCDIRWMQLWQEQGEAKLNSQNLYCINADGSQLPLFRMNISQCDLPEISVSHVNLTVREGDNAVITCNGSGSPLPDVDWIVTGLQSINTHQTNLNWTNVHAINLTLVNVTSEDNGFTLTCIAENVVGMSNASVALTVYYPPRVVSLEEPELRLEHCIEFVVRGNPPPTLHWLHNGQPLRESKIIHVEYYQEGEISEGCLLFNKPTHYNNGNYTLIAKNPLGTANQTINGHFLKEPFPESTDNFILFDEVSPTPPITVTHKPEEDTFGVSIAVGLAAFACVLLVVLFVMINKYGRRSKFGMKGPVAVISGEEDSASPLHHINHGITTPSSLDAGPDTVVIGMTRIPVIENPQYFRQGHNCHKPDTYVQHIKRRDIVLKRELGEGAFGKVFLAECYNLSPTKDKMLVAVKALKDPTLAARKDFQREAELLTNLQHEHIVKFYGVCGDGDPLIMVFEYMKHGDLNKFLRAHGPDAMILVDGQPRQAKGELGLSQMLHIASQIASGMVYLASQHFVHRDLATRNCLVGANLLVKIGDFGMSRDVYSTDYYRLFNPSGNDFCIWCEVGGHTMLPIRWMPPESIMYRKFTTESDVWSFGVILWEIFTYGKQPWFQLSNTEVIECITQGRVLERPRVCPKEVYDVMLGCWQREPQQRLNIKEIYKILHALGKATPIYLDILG
T3 sequence (Q16620 32-822): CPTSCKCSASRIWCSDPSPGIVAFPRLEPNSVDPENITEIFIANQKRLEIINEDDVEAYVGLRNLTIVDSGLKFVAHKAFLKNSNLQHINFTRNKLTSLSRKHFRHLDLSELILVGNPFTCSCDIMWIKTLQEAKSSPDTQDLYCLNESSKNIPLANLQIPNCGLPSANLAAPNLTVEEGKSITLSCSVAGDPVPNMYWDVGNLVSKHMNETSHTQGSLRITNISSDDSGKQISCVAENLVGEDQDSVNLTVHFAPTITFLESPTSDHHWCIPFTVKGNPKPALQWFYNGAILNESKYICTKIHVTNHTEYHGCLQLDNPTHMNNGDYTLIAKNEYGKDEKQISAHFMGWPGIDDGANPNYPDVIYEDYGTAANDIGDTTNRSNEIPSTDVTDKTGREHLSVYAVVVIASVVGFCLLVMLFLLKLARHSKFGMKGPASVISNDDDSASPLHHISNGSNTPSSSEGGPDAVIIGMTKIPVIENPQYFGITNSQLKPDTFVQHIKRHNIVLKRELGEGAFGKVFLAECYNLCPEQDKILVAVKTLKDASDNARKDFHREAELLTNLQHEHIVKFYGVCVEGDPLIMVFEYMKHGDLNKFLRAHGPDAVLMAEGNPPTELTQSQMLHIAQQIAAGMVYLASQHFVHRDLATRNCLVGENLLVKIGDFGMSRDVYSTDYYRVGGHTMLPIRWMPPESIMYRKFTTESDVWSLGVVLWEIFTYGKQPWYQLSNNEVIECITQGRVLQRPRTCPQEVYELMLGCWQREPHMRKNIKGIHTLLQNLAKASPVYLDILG

With `COC(=O)c1cccc(CN2CC[C@H](NC(=O)c3cnc4ccc(N5C[C@@H](F)C[C@@H]5c5cc(F)ccc5SC)nn34)C2)c1` [Example 10, Methyl 3-{[(3S)-3-{6-[(2R,4S)-4-fluoro-2-[5-fluoro-2-(methylsulfanyl)phenyl]pyrrolidin-1-yl]imidazo[1,2-b]pyridazine-3-amido}pyrrolidin-1-yl]methyl}benzoate], the IC50 is 1.18 nM at TrkA, 2.12 nM on TrkC and 2.15 nM on TrkB.
For `CSc1cc(F)cc([C@H]2C[C@H](F)CN2c2ccc3ncc(C(=O)NCc4ccc(F)c(O)c4)n3n2)c1` [Example 26, 6-[(2R,4S)-4-fluoro-2-[3-fluoro-5-(methylsulfanyl)phenyl]pyrrolidin-1-yl]-N-[(4-fluoro-3-hydroxyphenyl)methyl]imidazo[1,2-b]pyridazine-3-carboxamide] the same measures were 1.87 nM, 2.97 nM and 1.85 nM.
The matching figures for `CSc1cc(F)cc([C@H]2C[C@H](F)CN2c2ccc3ncc(C(=O)N[C@@H]4COCCN(Cc5ccc(F)c(O)c5)C4)n3n2)c1` (single isomer, unassigned) [Example 24]: 6.9 nM, 17.3 nM and 23.6 nM.
For `CSc1ccc(F)cc1[C@H]1CCCN1c1ccc2ncc(C(=O)N[C@H]3CCN(Cc4ccc(F)c(O)c4)C3)n2n1` [Example 2, 6-[(2R)-2-[5-fluoro-2-(methylsulfanyl)phenyl]pyrrolidin-1-yl]-N-[(3S)-1-[(4-fluoro-3-hydroxyphenyl)methyl]pyrrolidin-3-yl]imidazo[1,2-b]pyridazine-3-carboxamide] the same measures were 1.78 nM, 3.36 nM and 3.33 nM.
For `CCCCOC(=O)c1cccc(CN2CC[C@H](NC(=O)c3cnc4ccc(N5C[C@@H](F)C[C@@H]5c5cc(F)ccc5SC)nn34)C2)c1` [Example 12, Butyl 3-{[(3S)-3-{6-[(2R,4S)-4-fluoro-2-[5-fluoro-2-(methylsulfanyl)phenyl]pyrrolidin-1-yl]imidazo[1,2-b]pyridazine-3-amido}pyrrolidin-1-yl]methyl}benzoate], the IC50 on TrkA is 3.82 nM; on TrkC, 10.9 nM; at TrkB it was 10.3 nM.
Take `CSc1ccc(F)cc1[C@H]1CCCN1c1ccc2ncc(C(=O)NC3CN(Cc4ccc(F)c(O)c4)C3)n2n1` [Example 1, 6-[(2R)-2-[5-fluoro-2-(methylsulfanyl)phenyl]pyrrolidin-1-yl]-N-{1-[(4-fluoro-3-hydroxyphenyl)methyl]azetidin-3-yl}imidazo[1,2-b]pyridazine-3-carboxamide]: the results for the IC50 at TrkA, at TrkC and at TrkB were 1.77 nM, 2.81 nM and 2.06 nM, respectively.
In the case of `CSc1cc(F)cc([C@H]2C[C@H](F)CN2c2ccc3ncc(C(=O)NC4CN(Cc5ccc(F)c(O)c5)C4)n3n2)c1` [Example 19, 6-[(2R,4S)-4-fluoro-2-[3-fluoro-5-(methylsulfanyl)phenyl]pyrrolidin-1-yl]-N-{1-[(4-fluoro-3-hydroxyphenyl)methyl]azetidin-3-yl}imidazo[1,2-b]pyridazine-3-carboxamide], the IC50 at TrkA was found to be 2.46 nM; on TrkC, 2.99 nM; on TrkB, 3.04 nM.
The matching figures for `CSc1cc(F)cc([C@H]2C[C@H](F)CN2c2ccc3ncc(C(=O)N[C@H]4CCN(C(=O)c5cccc(O)c5)C4)n3n2)c1` [Example 27, 6-[(2R,4S)-4-fluoro-2-[3-fluoro-5-(methylsulfanyl)phenyl]pyrrolidin-1-yl]-N-[(3S)-1-(3-hydroxybenzoyl)pyrrolidin-3-yl]imidazo[1,2-b]pyridazine-3-carboxamide]: 1.34 nM, 1.87 nM and 1.01 nM.
On to `CSc1cc(F)cc([C@H]2C[C@H](F)CN2c2ccc3ncc(C(=O)N[C@H]4CCN(Cc5cccc(O)c5)C4)n3n2)c1` [Example 17, 6-[(2R,4S)-4-fluoro-2-[3-fluoro-5-(methylsulfanyl)phenyl]pyrrolidin-1-yl]-N-[(3S)-1-[(3-hydroxyphenyl)methyl]pyrrolidin-3-yl]imidazo[1,2-b]pyridazine-3-carboxamide], for which the IC50 at TrkA was found to be 2.41 nM; on TrkC, 4.62 nM; at TrkB, 5.04 nM.
For `CSc1cc(F)cc([C@H]2C[C@H](F)CN2c2ccc3ncc(C(=O)N[C@H]4COCCN(Cc5ccc(F)c(O)c5)C4)n3n2)c1` (single isomer, unassigned) [Example 25] the same measures were 6.1 nM, 8.72 nM and 11.4 nM.
`CSc1cc(F)cc([C@H]2C[C@H](F)CN2c2ccc3ncc(C(=O)N[C@H]4CCN(Cc5cccc(OC(C)=O)c5)C4)n3n2)c1` [Example 28, 3-{[(3S)-3-{6-[(2R,4S)-4-fluoro-2-[3-fluoro-5-(methylsulfanyl)phenyl]pyrrolidin-1-yl]imidazo[1,2-b]pyridazine-3-amido}pyrrolidin-1-yl]methyl}phenyl Acetate]: the IC50 at TrkA was 4.63 nM; at TrkC, 4.88 nM; at TrkB, 5.67 nM.
Take `CSc1ccc(F)cc1[C@H]1C[C@H](F)CN1c1ccc2ncc(C(=O)N[C@H]3CCN(Cc4ccc(F)c(O)c4)C3)n2n1` [Example 11, 6-[(2R,4S)-4-fluoro-2-[5-fluoro-2-(methylsulfanyl)phenyl]pyrrolidin-1-yl]-N-[(3S)-1-[(4-fluoro-3-hydroxyphenyl)methyl]pyrrolidin-3-yl]imidazo[1,2-b]pyridazine-3-carboxamide]: the figures for the IC50 at TrkA, on TrkC and on TrkB were 1.57 nM, 2.46 nM and 2.27 nM, respectively.
In the case of `CSc1cc(F)cc([C@H]2C[C@H](F)CN2c2ccc3ncc(C(=O)NC4CCN(Cc5cccc(O)c5)CC4)n3n2)c1` [Example 22, 6-[(2R,4S)-4-fluoro-2-[3-fluoro-5-(methylsulfanyl)phenyl]pyrrolidin-1-yl]-N-{1-[(3-hydroxyphenyl)methyl]piperidin-4-yl}imidazo[1,2-b]pyridazine-3-carboxamide], the IC50 at TrkA was 1.4 nM; on TrkC, 2.13 nM; at TrkB, 2.01 nM.

The values are drawn from patent publication US20210253572A1, “IMIDAZO[1,2-B]PYRIDAZINES AS TRK INHIBITORS” (BenevolentAl Bio Limited, priority 2018, published 2021).
